Laboratory results as given in patent publication US20070160725A1, “Use of extracts and compounds of allium-genus plants as preservatives in the food and agri-food industries” (MOUSALA, S., L., priority 2004, published 2007).
Values joined by “and” are separate entries in the source; they are usually repeats but may differ in a detail not shown here. Identical values can stand only once.

Tests used:
[1] = system: Mucor plumbeus, isolated from cheese; test: agar diffusion, inhibition halo; format: cell-based
Procedure: (§1) In order to evaluate the antimicrobial activity the agar diffusion technique with cellulose discs of 6 mm in diameter impregnated with the different active ingredient testing doses was used.
(§2) Antifungal capacity was assessed against suspensions of […], harvested from pure cultures of the selected molds and against suspensions of 10^7 cells/ml for the case of yeasts. The culture medium used was the 2% Sabouraud-glucose medium (Merck).
(§3) After incubating the culture dishes inoculated with the different organisms at the corresponding temperatures, the microbial inhibition halos that appeared were measured, and said measurement includes the 6 mm diameter of the cellulose discs.

[2] = system: Penicillium italicum CECT 2294; test: agar diffusion, inhibition halo; format: cell-based; details: Penicillium italicum, CECT2294; 1000 ppm; read-out: inhibition halo diameter
Procedure: as §1, §2, §3

[3] = system: Bacillus subtilis, isolated from paprika; test: agar diffusion, inhibition halo; format: cell-based; details: 1000 ppm
Procedure: as §1
(§4) Antibacterial capacity was assessed against suspensions of 10^6 cells/ml, prepared from pure young cultures of each one of the strains to be tested. The culture medium used was Müller-Hinton medium (Merck).
as §3

[4] = system: Salmonella typhimurium, ATCC 13311; test: agar diffusion, inhibition halo; format: cell-based
Procedure: as §1, §4, §3

[5] = system: Staphylococcus aureus, isolated from hamburgers; test: agar diffusion, inhibition halo; format: cell-based
Procedure: as §1, §4, §3

[6] = system: Aspergillus niger, CECT 2700; test: agar diffusion, inhibition halo; format: cell-based
Procedure: as §1, §2, §3

[7] = system: Aspergillus terreus, isolated from the environment of the cheese maturation chamber; test: agar diffusion, inhibition halo; format: cell-based
Procedure: as §1, §2, §3

[8] = system: Candida albicans, ATCC 10231; test: agar diffusion, inhibition halo; format: cell-based
Procedure: as §1, §2, §3

[9] = system: Geotrichum candidum CECT 1902; test: agar diffusion, inhibition halo; format: cell-based; details: in polyvinyl acetate emulsion, 2000 ppm
Procedure: as §1, §2, §3

[10] = system: Penicillium funiculosum, CECT 2702; test: agar diffusion, inhibition halo; format: cell-based
Procedure: as §1, §2, §3

[11] = system: Penicillium sp, isolated from cheese; test: agar diffusion, inhibition halo; format: cell-based
Procedure: as §1, §2, §3

[12] = system: Pullularia pullulans, CECT 2657; test: agar diffusion, inhibition halo; format: cell-based
Procedure: as §1, §2, §3

[13] = system: Saccharomyces cerevisiae, CECT 1324; test: agar diffusion, inhibition halo; format: cell-based
Procedure: as §1, §2, §3

[14] = system: Trichoderma viride, CECT 2460; test: agar diffusion, inhibition halo; format: cell-based
Procedure: as §1, §2, §3

[15] = system: Bacillus cereus, CECT 1178; test: agar diffusion, inhibition halo; format: cell-based
Procedure: as §1, §4, §3

[16] = system: Bacillus megaterium, ATCC 33085; test: agar diffusion, inhibition halo; format: cell-based
Procedure: as §1, §4, §3

[17] = system: Escherichia coli, CECT 515; test: agar diffusion, inhibition halo; format: cell-based
Procedure: as §1, §4, §3

[18] = system: Micrococcus luteus, isolated from a spiced sausage; test: agar diffusion, inhibition halo; format: cell-based
Procedure: as §1, §4, §3

[19] = system: Proteus vulgaris, ATCC 13315; test: agar diffusion, inhibition halo; format: cell-based
Procedure: as §1, §4, §3

[20] = system: Pseudomonas aeruginosa, ATCC 13925; test: agar diffusion, inhibition halo; format: cell-based
Procedure: as §1, §4, §3

[21] = system: Streptococcus faecalis, isolated from a spiced sausage; test: agar diffusion, inhibition halo; format: cell-based
Procedure: as §1, §4, §3

[22] = system: mold on the surface of the cheese; test: preservative activity on surface of cheese (PVA emulsion coating); details: fresh cheese, PVA emulsion with 2000 ppm pimaricin with 12000 ppm of potassium sorbate, diluted 1:1 with water, room temperature
Procedure: (§5) These tests were carried out according to the instructions for applying said commercial preparations on foods by immersion, such as spiced sausage, chorizo, cheese, etc. (see application examples), with different antimicrobial product doses.
The amounts of PTS and pimaricin with potassium sorbate (12000 ppm) as shown in the corresponding table are added to emulsions of 1 kg of PVA. Said preparations are diluted 1:1 with water and pieces of fresh cheese without surface treatment are submerged therein. Once the pieces are dry, each one is introduced into a sealed recipient and is left at room temperature. They are monitored, and the occurrence of mold on their surface is observed on the days herein set forth:
Amounts of complex in α-cyclodextrin (sample 2) and β-cyclodextrin (sample 3) are added to emulsions of 1 kg of PVA such that the amount of active ingredient, PTS, is 5000 ppm. On the other hand a sample (no. 1) is prepared with pimaricin (2000 ppm) and potassium sorbate (12000 ppm). The same process is followed as in the previous case upon applying the products and the samples are monitored, the occurrence of mold on the surface of the cheese being observed according to the following table: […]

mold = test: preserving activity on the surface of sausages (large intestine chorizo and spiced sausage); details: intestines submerged in a pimaricin solution at 500 ppm for 3 hours before stuffing
Procedure: as §5
Preparing sample 1: First a series of pig large intestines are submerged in a dispersion of pimaricin in water, 500 ppm, for three hours. Then two pieces are stuffed with 600 g each.
Then 4 other pieces are stuffed with 600 g each and are treated as follows: • Control sample: two pieces are left untreated. • Sample 2: Two pieces are submerged for 2 minutes in a dispersion of sucrose esters in water (10-40 g/kg of water), with a concentration of 3000 ppm of PTS.
All the pieces are subjected to drying between 24 and 26° C. and 90% relative humidity for 72 hours. Then they are hung and left to cure. The external appearance is monitored and the following results are obtained: […]

[23] = 250 ppm (second column headed 250)
[24] = in polyvinyl acetate emulsion, 2000 ppm

CCCSS(=O)(=O)CCC [PTSO, Propyl Propylthiosulfonate]
inhibition halo diameter ([1]; 1000 ppm): 13 mm | zone of inhibition at 1000 ppm [2]: 65 mm | inhibition halo diameter [3]: 65 mm | inhibition halo diameter ([4]; 1000 ppm): 31 mm | inhibition halo diameter ([5]; 1000 ppm): 55 mm

C[C@@H]1C/C=C/C=C/C=C/C=C/[C@H](O[C@@H]2O[C@H](C)[C@@H](O)[C@H](N)[C@@H]2O)C[C@@H]2O[C@](O)(C[C@@H](O)C[C@H]3O[C@@H]3/C=C/C(=O)O1)C[C@H](O)[C@H]2C(=O)O [Pimaricin, pimaricin]
inhibition halo diameter ([6]; 62.5 ppm): 19 mm | inhibition halo diameter ([6]; 250 ppm): 19 mm | inhibition halo diameter [6, 23]: 19 mm | inhibition halo diameter ([6]; 500 ppm): 20 mm | inhibition halo diameter ([6]; 1000 ppm): 20 mm | inhibition halo diameter [6, 24]: 20 mm | inhibition halo diameter ([7]; 100 ppm): 14 mm | inhibition halo diameter ([7]; 1000 ppm): 15 mm | inhibition halo diameter ([8]; 62.5 ppm): 10 mm | inhibition halo diameter ([8]; 250 ppm): 12 mm | inhibition halo diameter [8, 23]: 12 mm | inhibition halo diameter ([8]; 500 ppm): 14 mm | inhibition halo diameter ([8]; 1000 ppm): 16 mm | inhibition halo diameter [9]: 15 mm | inhibition halo diameter [1, 24]: 13 mm | inhibition halo diameter ([10]; 62.5 ppm): 10 mm | inhibition halo diameter ([10]; 250 ppm): 11 mm | inhibition halo diameter [10, 23]: 10 mm | inhibition halo diameter ([10]; 500 ppm): 12 mm | inhibition halo diameter ([10]; 1000 ppm): 12 mm | inhibition halo diameter ([11]; 100 ppm): 24 mm | inhibition halo diameter ([11]; 1000 ppm): 26 mm | inhibition halo diameter [11, 24]: 18 mm | inhibition halo diameter ([12]; 62.5 ppm): 24 mm | inhibition halo diameter ([12]; 250 ppm): 28 mm | inhibition halo diameter [12, 23]: 28 mm | inhibition halo diameter ([12]; 500 ppm): 30 mm | inhibition halo diameter ([12]; 1000 ppm): 23 mm | inhibition halo diameter ([13]; 100 ppm): 26 mm | inhibition halo diameter ([13]; 1000 ppm): 26 mm | inhibition halo diameter ([14]; 62.5 ppm): 13 mm | inhibition halo diameter ([14]; 250 ppm): 15 mm | inhibition halo diameter [14, 23]: 14 mm | inhibition halo diameter ([14]; 500 ppm): 16 mm | inhibition halo diameter ([14]; 1000 ppm): 18 mm | inhibition halo diameter ([15]; 100 ppm): 0 mm | inhibition halo diameter ([15]; 1000 ppm): 0 mm | inhibition halo diameter ([16]; 62.5 ppm): 0 mm | inhibition halo diameter ([16]; 250 ppm): 0 mm | inhibition halo diameter [16, 23]: 0 mm | inhibition halo diameter ([16]; 500 ppm): 0 mm | inhibition halo diameter ([16]; 1000 ppm): 0 mm | inhibition halo diameter ([17]; 62.5 ppm): 0 mm | inhibition halo diameter ([17]; 250 ppm): 0 mm | inhibition halo diameter [17, 23]: 0 mm | inhibition halo diameter ([17]; 500 ppm): 0 mm | inhibition halo diameter ([17]; 1000 ppm): 0 mm | inhibition halo diameter ([18]; 100 ppm): 0 mm | inhibition halo diameter ([18]; 1000 ppm): 0 mm | inhibition halo diameter ([19]; 62.5 ppm): 0 mm | inhibition halo diameter ([19]; 250 ppm): 0 mm | inhibition halo diameter [19, 23]: 0 mm | inhibition halo diameter ([19]; 500 ppm): 0 mm | inhibition halo diameter ([19]; 1000 ppm): 0 mm | inhibition halo diameter ([20]; 62.5 ppm): 0 mm | inhibition halo diameter ([20]; 250 ppm): 0 mm | inhibition halo diameter [20, 23]: 0 mm | inhibition halo diameter ([20]; 500 ppm): 0 mm | inhibition halo diameter ([20]; 1000 ppm): 0 mm | inhibition halo diameter ([4]; 62.5 ppm): 0 mm | inhibition halo diameter ([4]; 250 ppm): 0 mm | inhibition halo diameter [4, 23]: 0 mm | inhibition halo diameter ([4]; 500 ppm): 0 mm | inhibition halo diameter ([4]; 1000 ppm): 0 mm | inhibition halo diameter ([5]; 62.5 ppm): 0 mm | inhibition halo diameter ([5]; 250 ppm): 0 mm | inhibition halo diameter [5, 23]: 0 mm | inhibition halo diameter ([5]; 500 ppm): 0 mm | inhibition halo diameter ([5]; 1000 ppm): 0 mm | inhibition halo diameter ([21]; 62.5 ppm): 0 mm | inhibition halo diameter ([21]; 250 ppm): 0 mm | inhibition halo diameter [21, 23]: 0 mm | inhibition halo diameter ([21]; 500 ppm): 0 mm | inhibition halo diameter ([21]; 1000 ppm): 0 mm | Visible occurrence of mold at [22]: 10 to 15 days and 10 to 16 days | Visible occurrence of mold at (mold): 6 days
